The target of assay [1] is Epidermal growth factor receptor (Homo sapiens, UniProt P00533, L858R).
The target of assay [2] is Epidermal growth factor receptor (Homo sapiens, UniProt P00533). It is filed as ADME.
Description: Inhibition of human N-terminal GST-fused EGFR cytoplasmic domain (669 to 1210 residues) expressed in baculovirus using TK-substrate-biotin preincubated for 30 mins followed by substrate addition measured after 25 mins by HTFR assay
Assay [3] addresses Epidermal growth factor receptor (Homo sapiens, UniProt P00533, L858R/T790M).
Assay [4] relates to A-431. The assay is described as follows: cells. To be noted: Homo sapiens, A-431, 96 h. The class given is ADME, cell-based.
Description: Antiproliferative activity against human A431 cells harboring wild type EGFR assessed as growth inhibition after 96 hrs by CellTiter-Glo assay
Assay [5] concerns NCI-H1975. The experiment in a line: cells. It is filed as functional, cell-based. To be noted: Homo sapiens, NCI-H1975, 96 h.

Sequence of Epidermal growth factor receptor (Homo sapiens, UniProt P00533, L858R) (P00533 25-1210 L858R limits assumed): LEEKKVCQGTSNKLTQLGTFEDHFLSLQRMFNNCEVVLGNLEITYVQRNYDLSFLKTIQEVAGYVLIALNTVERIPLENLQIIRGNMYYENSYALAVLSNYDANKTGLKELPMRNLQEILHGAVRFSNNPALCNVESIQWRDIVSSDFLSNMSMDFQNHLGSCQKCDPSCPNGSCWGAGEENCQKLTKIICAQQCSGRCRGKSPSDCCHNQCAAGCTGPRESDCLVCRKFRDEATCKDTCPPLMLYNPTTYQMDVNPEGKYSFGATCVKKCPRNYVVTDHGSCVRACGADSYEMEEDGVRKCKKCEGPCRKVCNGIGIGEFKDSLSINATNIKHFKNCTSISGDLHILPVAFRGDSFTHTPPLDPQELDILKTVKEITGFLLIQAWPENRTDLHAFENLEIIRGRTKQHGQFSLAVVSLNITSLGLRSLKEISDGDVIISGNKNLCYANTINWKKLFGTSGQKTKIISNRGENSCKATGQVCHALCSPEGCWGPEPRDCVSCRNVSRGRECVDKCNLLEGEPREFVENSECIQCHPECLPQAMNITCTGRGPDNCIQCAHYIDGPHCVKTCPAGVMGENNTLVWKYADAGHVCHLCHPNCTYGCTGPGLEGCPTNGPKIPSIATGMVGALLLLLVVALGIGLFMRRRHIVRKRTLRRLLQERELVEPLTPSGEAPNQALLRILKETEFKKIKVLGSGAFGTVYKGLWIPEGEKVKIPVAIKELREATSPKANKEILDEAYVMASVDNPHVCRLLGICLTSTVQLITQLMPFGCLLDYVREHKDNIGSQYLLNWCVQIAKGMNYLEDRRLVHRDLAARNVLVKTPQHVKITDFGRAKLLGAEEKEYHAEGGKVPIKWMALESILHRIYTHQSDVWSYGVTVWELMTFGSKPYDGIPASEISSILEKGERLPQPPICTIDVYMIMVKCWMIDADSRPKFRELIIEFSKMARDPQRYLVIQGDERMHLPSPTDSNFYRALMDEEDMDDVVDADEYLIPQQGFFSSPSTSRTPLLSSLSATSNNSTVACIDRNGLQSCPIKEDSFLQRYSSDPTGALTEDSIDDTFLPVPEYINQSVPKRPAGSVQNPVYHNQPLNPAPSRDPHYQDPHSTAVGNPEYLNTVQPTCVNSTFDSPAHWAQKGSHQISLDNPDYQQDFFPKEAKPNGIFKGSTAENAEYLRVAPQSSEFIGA
Sequence of Epidermal growth factor receptor (Homo sapiens, UniProt P00533) (P00533 whole entry): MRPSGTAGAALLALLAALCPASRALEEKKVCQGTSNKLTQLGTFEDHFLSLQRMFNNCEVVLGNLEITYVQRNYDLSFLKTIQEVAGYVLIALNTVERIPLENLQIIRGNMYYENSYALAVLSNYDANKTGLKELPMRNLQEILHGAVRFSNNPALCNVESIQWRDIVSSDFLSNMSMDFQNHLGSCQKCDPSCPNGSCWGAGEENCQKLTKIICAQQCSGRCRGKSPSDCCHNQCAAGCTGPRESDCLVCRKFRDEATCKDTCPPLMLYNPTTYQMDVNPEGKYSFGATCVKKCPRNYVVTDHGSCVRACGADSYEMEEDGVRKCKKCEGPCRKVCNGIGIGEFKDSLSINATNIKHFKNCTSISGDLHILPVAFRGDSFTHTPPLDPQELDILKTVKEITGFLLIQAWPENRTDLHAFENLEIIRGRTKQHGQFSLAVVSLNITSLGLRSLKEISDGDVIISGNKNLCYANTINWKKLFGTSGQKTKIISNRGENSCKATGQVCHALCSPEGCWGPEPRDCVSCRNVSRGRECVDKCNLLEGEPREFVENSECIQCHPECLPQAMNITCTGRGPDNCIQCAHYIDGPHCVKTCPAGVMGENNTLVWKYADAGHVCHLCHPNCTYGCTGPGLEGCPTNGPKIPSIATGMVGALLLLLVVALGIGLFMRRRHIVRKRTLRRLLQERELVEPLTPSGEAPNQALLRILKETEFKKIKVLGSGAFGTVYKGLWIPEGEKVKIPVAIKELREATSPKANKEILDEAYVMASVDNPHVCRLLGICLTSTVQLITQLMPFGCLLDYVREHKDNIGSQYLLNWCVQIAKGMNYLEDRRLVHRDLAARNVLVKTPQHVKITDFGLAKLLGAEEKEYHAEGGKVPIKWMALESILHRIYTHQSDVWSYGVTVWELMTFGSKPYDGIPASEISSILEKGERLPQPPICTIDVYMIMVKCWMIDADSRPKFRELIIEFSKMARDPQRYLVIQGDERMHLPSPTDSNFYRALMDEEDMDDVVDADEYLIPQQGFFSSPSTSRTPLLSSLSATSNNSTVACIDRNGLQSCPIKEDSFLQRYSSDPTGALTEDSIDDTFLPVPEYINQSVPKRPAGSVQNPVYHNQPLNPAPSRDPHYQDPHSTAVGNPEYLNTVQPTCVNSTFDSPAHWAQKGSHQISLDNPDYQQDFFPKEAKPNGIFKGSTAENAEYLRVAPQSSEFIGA
Sequence of Epidermal growth factor receptor (Homo sapiens, UniProt P00533, L858R/T790M) (P00533 25-1210 T790M/L858R limits assumed): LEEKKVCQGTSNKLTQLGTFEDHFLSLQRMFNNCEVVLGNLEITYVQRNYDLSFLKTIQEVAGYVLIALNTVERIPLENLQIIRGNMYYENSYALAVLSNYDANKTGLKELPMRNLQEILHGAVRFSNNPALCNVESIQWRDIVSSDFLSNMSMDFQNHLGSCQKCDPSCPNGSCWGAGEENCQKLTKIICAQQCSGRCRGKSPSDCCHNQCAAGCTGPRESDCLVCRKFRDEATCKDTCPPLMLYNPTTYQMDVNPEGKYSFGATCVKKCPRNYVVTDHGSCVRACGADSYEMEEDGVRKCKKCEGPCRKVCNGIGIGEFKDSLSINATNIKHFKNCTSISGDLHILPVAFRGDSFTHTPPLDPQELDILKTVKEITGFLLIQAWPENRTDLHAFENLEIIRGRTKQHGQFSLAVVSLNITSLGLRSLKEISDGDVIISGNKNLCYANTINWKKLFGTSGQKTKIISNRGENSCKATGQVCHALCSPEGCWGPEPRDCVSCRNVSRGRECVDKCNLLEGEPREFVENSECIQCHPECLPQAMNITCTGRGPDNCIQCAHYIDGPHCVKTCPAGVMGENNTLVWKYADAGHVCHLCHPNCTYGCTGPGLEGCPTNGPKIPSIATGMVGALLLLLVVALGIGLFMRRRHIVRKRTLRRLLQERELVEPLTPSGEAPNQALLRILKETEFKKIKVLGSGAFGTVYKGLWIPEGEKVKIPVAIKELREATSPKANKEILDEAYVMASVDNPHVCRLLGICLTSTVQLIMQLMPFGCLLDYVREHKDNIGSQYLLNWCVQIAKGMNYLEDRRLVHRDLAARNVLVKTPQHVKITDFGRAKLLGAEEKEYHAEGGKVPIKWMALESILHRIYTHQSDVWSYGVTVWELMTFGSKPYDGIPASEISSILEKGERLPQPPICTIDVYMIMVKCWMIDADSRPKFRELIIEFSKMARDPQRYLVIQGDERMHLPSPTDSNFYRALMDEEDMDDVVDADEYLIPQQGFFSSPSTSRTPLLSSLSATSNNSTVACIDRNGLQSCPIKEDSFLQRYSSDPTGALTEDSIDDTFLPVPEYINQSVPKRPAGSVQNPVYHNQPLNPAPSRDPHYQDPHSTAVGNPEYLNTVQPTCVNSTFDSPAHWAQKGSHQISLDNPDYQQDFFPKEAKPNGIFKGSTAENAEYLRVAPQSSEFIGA

`CSc1nc(-c2ccc(F)cc2)c(-c2ccnc(Nc3cc(N4CCN(C)CC4)cc([N+](=O)[O-])c3)c2)[nH]1`: the concentration for half-maximal inhibition (IC50) (as a rule, the concentration needed to halve the response being measured) in assay [1] was less than 1 nM; in assay [2] it was 2.1 nM; in assay [3], 12 nM. Besides, the values for the EC50 in assay [4] and in assay [5] were 7800 nM and 13000 nM, respectively.

Regarding `C=CC(=O)N1CCC(Sc2nc(-c3ccc(F)cc3)c(-c3ccnc(Nc4ccccc4)c3)[nH]2)C1` (stereo not given), the IC50 came to 25 nM in assay [1], 217 nM in assay [2] and 417 nM in assay [3]. Also, the EC50 (in general, the concentration giving half of the maximal effect) in assay [4] is 17000 nM; in assay [5] it was 14000 nM.

As to `NCCSc1nc(-c2ccc(F)cc2)c(-c2ccnc(Nc3ccccc3)c2)[nH]1`, the values for the IC50 in assay [1], in assay [2] and in assay [3] were 2.6 nM, 4.8 nM and 29 nM, respectively. Further, the results for the EC50 in assay [4] and in assay [5] were 11000 nM and 7200 nM, respectively.

Consider `C=CC(=O)NCCSc1nc(-c2ccc(F)c(C(F)(F)F)c2)c(-c2ccnc(Nc3ccccc3)c2)[nH]1`, for which the IC50 in assay [1] was determined as 144 nM; in assay [2], 45 nM; in assay [3] it was 646 nM. Further, the EC50 in assay [4] came out at 11000 nM; in assay [5], 3100 nM.

`OCCSc1nc(-c2ccc(F)cc2)c(-c2ccnc(Nc3ccccc3)c2)[nH]1`: the half-inhibitory concentration (IC50) in assay [1] was determined as 1.1 nM; in assay [2], 11 nM; in assay [3] it was 83 nM. Also, the figures for the half-maximal effective concentration (EC50) in assay [4] and in assay [5] were 11000 nM and 16000 nM, respectively.

With `C=CC(=O)NCc1cccc(Nc2cc(-c3[nH]c(SC)nc3-c3ccc(F)cc3)ccn2)c1`, the results for the IC50 in assay [1], in assay [2] and in assay [3] were 4.9 nM, 16 nM and 89 nM, respectively. Also, the EC50 is 14000 nM in assay [4] and 3400 nM in assay [5].

For the molecule `C=CC(=O)Nc1ccc(OC)c(Nc2cc(-c3[nH]c(SC)nc3C)ccn2)c1`, the results for the IC50 in assay [1], in assay [2] and in assay [3] were 10 nM, 32 nM and 33 nM, respectively. Also, the EC50 amounted to 9700 nM in assay [4] and 4100 nM in assay [5].

On to `CCC(=O)Nc1ccc(OC)c(Nc2cc(-c3cnc(SC)[nH]3)ccn2)c1`, for which the figures for the IC50 in assay [1], in assay [2] and in assay [3] were 360 nM, 1770 nM and 3510 nM, respectively. For the same molecule, the EC50 in assay [4] is 13000 nM; in assay [5] it was greater than 30000 nM.

`CC(=O)CCCSc1nc(-c2ccc(F)cc2)c(-c2ccnc(Nc3ccccc3)c2)[nH]1`: the values for the IC50 in assay [1], in assay [2] and in assay [3] were 76 nM, 185 nM and 1330 nM, respectively. For the same molecule, the EC50 in assay [4] is 12000 nM; in assay [5], 14000 nM.

`CN(C)C/C=C/C(=O)NCCSc1nc(-c2ccc(F)cc2)c(-c2ccnc(Nc3ccccc3)c2)[nH]1`: the half-maximal inhibitory concentration (IC50) is 1.9 nM in assay [1], 2.7 nM in assay [2] and 18 nM in assay [3]. For the same molecule, the 50% effective concentration (EC50) in assay [4] was 6600 nM; in assay [5], greater than 5000 nM.

For `C=CC(=O)Nc1cccc(Nc2cc(-c3[nH]c(SCCNC(=O)CC)nc3-c3ccccc3)ccn2)c1`, the IC50 in assay [1] is less than 1 nM; in assay [2], less than 1 nM; in assay [3] it was 2.5 nM. The EC50 in assay [4] amounted to 1500 nM; in assay [5], 2800 nM.

`C=CC(=O)Nc1ccc(OC)c(Nc2cc(-c3[nH]c(SC)nc3C(C)(C)C)ccn2)c1`: the IC50 in assay [1] was 16 nM; in assay [2], 57 nM; in assay [3], 485 nM. Besides, the values for the EC50 in assay [4] and in assay [5] were 20000 nM and 18000 nM, respectively.

For `NCCCSc1nc(-c2ccc(F)cc2)c(-c2ccnc(Nc3ccccc3)c2)[nH]1`, the half-maximal inhibitory concentration (IC50) in assay [1] worked out at 12 nM; in assay [2], 55 nM; in assay [3], 240 nM. For the same molecule, the EC50 in assay [4] is 7400 nM; in assay [5] it was 8400 nM.

Consider `C=CC(=O)Nc1ccc(OC)c(Nc2cc(-c3[nH]c(SC)nc3C3CCC3)ccn2)c1`, for which the IC50 was less than 1 nM in assay [1], less than 1 nM in assay [2] and 6.8 nM in assay [3]. Moreover, the EC50 stood at 8900 nM in assay [4] and 2000 nM in assay [5].

On to `C=CC(=O)NCc1cn(Cc2cccc(Nc3cc(-c4[nH]c(SC)nc4-c4ccc(F)cc4)ccn3)c2)nn1`, for which the half-inhibitory concentration (IC50) in assay [1] worked out at 46 nM; in assay [2] it was 164 nM; in assay [3], 597 nM. Moreover, the results for the EC50 in assay [4] and in assay [5] were 24000 nM and 23000 nM, respectively.

Turning to `C=CC(=O)NCCCSc1nc(-c2ccc(F)cc2)c(-c2ccnc(Nc3ccccc3)c2)[nH]1`, the figures for the IC50 in assay [1], in assay [2] and in assay [3] were 22 nM, 16 nM and 321 nM, respectively. The EC50 turned out to be 1400 nM in assay [4] and 1300 nM in assay [5].

Turning to `C=CC(=O)Nc1cc(Nc2nccc(-c3cn(C)c4ccccc34)n2)c(OC)cc1N(C)CCN(C)C` [OSIMERTINIB], the values for the half-maximal effective concentration (EC50) in assay [4] and in assay [5] were […] and […], respectively.

Turning to `C=CC(=O)Nc1cccc(Oc2nc(Nc3ccc(N4CCN(C)CC4)cc3OC)ncc2Cl)c1`, the EC50 in assay [4] was determined as 2200 nM; in assay [5], 100 nM.

Take `C=CC(=O)N1CCC[C@@H]1CSc1nc(-c2ccc(F)cc2)c(-c2ccnc(Nc3ccccc3)c2)[nH]1`: the EC50 was found to be 6900 nM in assay [4] and 3400 nM in assay [5].

Regarding `CSc1nc(-c2ccc(F)cc2)c(-c2ccnc(Nc3cc(F)cc([N+](=O)[O-])c3)c2)[nH]1`, the IC50 is 55 nM in assay [1], 265 nM in assay [2] and 586 nM in assay [3]. Also, the EC50 in assay [4] turned out to be 19000 nM; in assay [5], 30000 nM.

With `C=CC(=O)Nc1ccc(OC)c(Nc2cc(-c3[nH]c(SC)nc3-c3ccc4ccccc4c3)ccn2)c1`, the IC50 in assay [1] was less than 1 nM; in assay [2] it was less than 1 nM; in assay [3], 1.1 nM. Moreover, the EC50 in assay [4] came out at 3000 nM; in assay [5] it was 380 nM.

In the case of `C=CC(=O)N1CCC[C@H]1CSc1nc(-c2ccc(F)cc2)c(-c2ccnc(Nc3ccccc3)c2)[nH]1`, the EC50 in assay [4] was determined as 8800 nM; in assay [5], 4700 nM.

As for `N#CCCSc1nc(-c2ccc(F)cc2)c(-c2ccnc(Nc3ccccc3)c2)[nH]1`, the IC50 in assay [1] was 40 nM; in assay [2], 109 nM; in assay [3] it was 746 nM. Besides, the EC50 was 17000 nM in assay [4] and 16000 nM in assay [5].

Turning to `Fc1ccc(-c2nc(SCCN3CCOCC3)[nH]c2-c2ccnc(Nc3ccccc3)c2)cc1`, the IC50 in assay [1] came to 75 nM; in assay [2], 183 nM; in assay [3] it was 1250 nM. Also, the 50% effective concentration (EC50) in assay [4] stood at 10000 nM; in assay [5], 15000 nM.

In the case of `C=CC(=O)Nc1ccc(OC)c(Nc2cc(-c3[nH]c(SC)nc3C3CCCC3)ccn2)c1`, the IC50 is less than 1 nM in assay [1], less than 1 nM in assay [2] and 4.5 nM in assay [3]. For the same molecule, the EC50 in assay [4] is 7800 nM; in assay [5] it was 1400 nM.

`C=CC(=O)Nc1ccc(OC)c(Nc2cc(-c3[nH]c(SC)nc3-c3cccs3)ccn2)c1`: the IC50 in assay [1], in assay [2] and in assay [3] was less than 1 nM each time. Besides, the half-maximal effective concentration (EC50) came out at 7400 nM in assay [4] and 84 nM in assay [5].

Regarding `CSc1nc(-c2ccc(F)cc2)c(-c2ccnc(Nc3ccccc3)c2)[nH]1`, the IC50 amounted to 2.5 nM in assay [1], 24 nM in assay [2] and 130 nM in assay [3]. For the same molecule, the EC50 in assay [4] came out at 11000 nM; in assay [5], 22000 nM.

As for `CN(C)C(=O)CSc1nc(-c2ccc(F)cc2)c(-c2ccnc(Nc3ccccc3)c2)[nH]1`, the EC50 worked out at 18000 nM in assay [4] and 16000 nM in assay [5].

(Values after ChEMBL document CHEMBL4011631, “Trisubstituted Pyridinylimidazoles as Potent Inhibitors of the Clinically Resistant L858R/T790M/C797S EGFR Mutant: Targeting of Both Hydrophobic Regions and the Phosphate Binding Site” (J Med Chem, 2017).)
